The source of these data is patent US20120264231A1, “ASSAY FOR ORAI CALCIUM CHANNEL REGULATORS” (IMMUNE DISEASE INSTITUTE, INC., priority 2009, published 2012).

The experiment deals with STIM1−/− T cells. Description: Single-cell [Ca2+]i measurement in STIM1−/− T cells expressing STIM1 fragments. It is filed as cell-based, murine. The conditions noted are these: for constitutive Ca^2+ influx: retroviral expression, Fura-2. From the text:
To determine the competence of STIM 1 fragments to activate ORAI1 in mammalian cells, Myc-tagged STIM 1^CT and its truncated variants were introduced by retroviral expression into STIM1−/− T cells, and their ability to elevate resting Ca^2+ permeability was examined in cells loaded with Fura-2. As in human Jurkat T cells (Huang, G. N., et al., (2006); supra), expression of the soluble cytoplasmic portion of STIM 1 activated Ca^2+ influx into STIM1−/− murine T cells (FIG. 11). Elevated Ca^2+ permeability was evident in a marked increase in cytoplasmic [Ca^2+] on changing to medium containing 2 mM Ca^2+ after brief exposure to nominally Ca^2+-free medium. […] Retroviral vector alone conferred no constitutive influx above the level in control cells, as previously shown (Oh-hora, M., et al., (2008), supra).
Retroviral expression plasmids encoding mouse STIM 1 and its cytoplasmic fragments (residues 233-685, 233-600, 233-498, or 233-463) were constructed by inserting the corresponding coding sequences between the XhoI and EcoRI sites of the vector pMSCV-CITE-eGFP-PGK-Puro (Clontech), which allows for coexpression of the inserted gene, GFP, and a puromycin resistance gene. GFP expression was used to estimate transducing efficiency.
Primary CD4^+ cells were purified from spleen and lymph nodes of Stim1^f1/f1 CD4-Cre^+ mice using Dynal magnetic beads (Invitrogen) following the manufacturer's instructions. Purified T cells were stimulated with anti-CD3 and anti-CD28, transduced with retroviruses obtained from transfected Phoenix packaging cells, and further expanded in IL-2-containing medium as described (Oh-hora, M., et al., Nat Immunol 9, 432-443 (2008); Ansel, K. M., et al., Nat Immunol 5, 1251-1259 (2004)). The transduction efficiency (>80%) was estimated by evaluating GFP expression using flow cytometry.
Retrovirus-transduced CD4^+ cells isolated from Stim1^f1/f1 CD4-Cre^+ mice were incubated overnight in IL-2 free RPMI medium and loaded with 2 μM Fura-2-acetoxylmethyl ester (Invitrogen) for 45 min at ambient temperature in the dark. T cells were further attached to coverslips precoated with 0.01% poly-L-lysine, mounted to a RC-20 closed-bath flow chamber (Warner Instrument), and bathed in Ringer's solution (155 mM NaCl, 4.5 mM KCl, 2 mM CaCl2, 1 mM MgCl2, 10 mM D-glucose and 5 mM HEPES, pH 7.4). For nominally Ca^2+-free Ringer's solution CaCl2 was replaced with MgCl2. After 5 minutes of equilibration in Ringer's solution, [Ca^2+]i measurement commenced with ˜3 min perfusion of T cells with Ca^2+-free Ringer's solution at ambient temperature, followed by perfusion of Ringer's solution containing 2 mM CaCl2. The cycle was repeated once with final addition of Ringer's solution supplemented with 2 μM LaCl3 to block Ca^2+ flux. Images were acquired using a Zeiss Axiovert S200 epifluorescence microscope and OpenLab imaging analysis software (Improvision). The fluorescence data (F340 nm/F380 nm) were collected every 4 s and analyzed as described (Oh-hora, M., et al., (2008), supra; Feske, S., et al., Nature 441, 179-185 (2006)). In each experiment, for each experimental condition, 50-100 GFP-positive CD4+ T cells were analyzed.

“STIM1^CT: cytoplasmic region of STIM1, mouse residues 233-685, His-tagged recombinant protein expressed in E coli”: under “on changing to medium containing 2 mM Ca^2+”, the “steepest rise of cytoplasmic [Ca^2+]” value is around 15 nM/s.

In the case of “STIM1 (233-463): truncated mouse STIM1 cytoplasmic fragment, residues 233-463, His-tagged recombinant protein”, the “constitutive Ca^2+ influx” value was “smaller but very clear constitutive Ca^2+ influx”.

In the case of “STIM1 (233-498): truncated mouse STIM1 cytoplasmic fragment, residues 233-498, His-tagged recombinant protein”, the “constitutive Ca^2+ influx” value is “activated a prominent constitutive Ca^2+ influx”. Also, under “compared with STIM1^CT”, the “maximum levels of cytoplasmic Ca^2+” value is on record as “somewhat less than with STIM1^CT” and the “rate of rise of cytoplasmic Ca^2+” value is “nearly comparable to the rate with STIM 1^CT”.
